Data set [1] in a line: Pharmacokinetics of γ-tocotrienol in mice (serum, HPLC). Format: in vivo, C57BL/6 black mice. The following applies: 1 mg γ-T3 i.p. Here is the method: 4.1.4 Pharmacokinetics of γ-Tocotrienol in Mice—C57BL/6 black mice were purchased from The Jackson Laboratory (Bar Harbor, Me., USA). Forty 5-week old mice were given a single dose i.p injection containing 1 mg of γ-T3. Five mice were sacrificed at different time points (10 min, 30 min, 1 h, 3 h, 6 h, 24 h, 48 h and 72 h). Blood samples were collected through cardiac bleeding. To isolate the serum, blood samples were incubated at room temperature for 30 min, followed by centrifugation at 4400 rpm, 4° C. for 30 min. γ-T3 concentration in serum was analyzed using HPLC method below.
4.1.6 γ-Tocotrienol Extraction from Serums, Tumors and Organs—Serums were thawed and sonicated in an ultrasonic bath (Lab Companion, Vernon Hills, Ill., USA) for 5 min, followed by vortexing for 10 s. 100 μl of serum was transferred into IWAKI Pyrex glass tube (Jawa Tengah, Indonesia) containing 900 μl of water. For the tumors and organs preparation, the tissues were homogenized in 1 ml of water using borosilicate glass homogenizer (Fisher scientific, Pittsburgh, Pa.), followed by transferring to Pyrex glass tube. 5 μl of δ-T3 with purity 99% (100 mg of δ-T3 dissolved in 1 ml of ethanol) was used as an internal standard solution and was spiked into the mixture. The tube was vortexed for 10 s and sonicated for 2 min. 4 ml of the butylated hydroxytoluene (BHT) solution (5 mg of BHT in 100 ml of heptane) was added into the tube to minimize the oxidation of target analytes. Liquid-liquid extraction was performed by vortexing vigorously for 10 s. After liquid-liquid extraction, the tubes were centrifuged at 4000 rpm for 5 min in Heraeus Multifuge 3-SR Centrifuge (Newport Pagnell, Buckinghamshire, UK). 3.9 ml of the organic layer was transferred into another Pyrex tube. […]
4.1.7 Determination of γ-Tocotrienol level by high performance liquid chromatography—A normal phase of HPLC method was performed as a modification of procedures known in the art. […] The absorbance of γ-T3 was monitored with a […] set at an excitation wavelength of 290 nm and emission wavelength of 360 nm.

Data set [2] is described as follows: Serum-based toxicity assay. Format: in vivo, C57BL/6 black mice. The settings on record: 5 dose i.p. injections per week containing 1 mg. Here is the method: 4.1.8 Serum-based toxicity assay—Ten C57BL/6 black mice were given 5 dose intraperitoneal (i.p) injections per week containing 1 mg of γ-tocotrienol or DMSO blank. Mice were sacrificed by cardiac bleeding and the serum was extracted by method described above. Serum level of the biomarkers albumin, creatine, alanine transaminase ALT, aspartate aminotransferase AST, urea and alkaline phosphatase ALP were then measured by the colorimetric-based detection kits purchased from RANDOX laboratories Ltd. (Crumlin, United Kingdom).

The next data set has as its system PC-3 cells. Kind of data set: Low-dose viability (MTT) and apoptotic markers, PC-3 cells. It is filed as cell-based. The settings on record: 2.5 and 5 μg/ml. On the procedure:
5.1.4 Cell viability assay—Cell viability upon γ-T3 treatment was measured by 3-(4,5-Dimethyl thiazol-2-yl)-2,5-diphenyl tetrazolium bromide (MTT) assay. Briefly, cells were seeded on 96 well-plates and treated with different concentrations of γ-T3 for the indicated time point. At the end of the treatment, MTT (Sigma, St. Louis, Mo.) was added into each well and incubated for 4 hrs at RT. DMSO was then added into each well to dissolve the formazan crystals. The plate was allowed to incubate for a further 5 min at RT and the optical density (OD) was measured at a wavelength of 570 nm on a Labsystem multiskan microplate reader (Merck Eurolab, Dietikon, Schweiz). All individual wells were set in triplicates. The percentage of cell viability was presented as OD ratio between the treated and untreated cells at indicated concentrations.
5.1.5 Western blotting was carried out as described above under 1.1.5. The membrane was incubated with primary antibodies directed against CD133 (Miltenyi Biotec, Auburn, Calif.), Bcl-2, PARP, cleaved caspase 3, 7, 9 (Cell Signaling, Technology Inc, Beverly, Mass.), CD44 and β-actin (Santa Cruz Biotechnology, Santa Cruz, Calif.). After washing with TBS-T, the membrane was incubated with secondary antibody against either mouse or rabbit IgG and the signals were visualized using ECL plus western blotting system (Amersham, Piscataway, N.J.).

Consider `CC(C)=CCC/C(C)=C/CC/C(C)=C/CCC1(C)CCc2cc(O)c(C)c(C)c2O1` (centres unmarked) [γ-T3, 7,8-dimethyltocotrienol], for which the “time the plasma level remains constant” value in data set [1] is “at least 72 hours”. The “plasma γ-T3 level, starting value” in data set [1] (before the fall) was 260 ppm. The “plasma γ-T3 level” value in data set [1] (within 30 min after administration) was determined as 50 ppm. The “toxicological changes in serum parameters (Alb, Cre, ALT, AST, Ure, ALP)” value in data set [2] was “no toxicological changes”. For the same molecule, the “induction of apoptosis (viability assay and apoptotic markers)” value with PC-3 cells is recorded as “failed to detect a drastic induction of apoptosis”.

Source of the values: patent US20110195910A1, “USE OF TOCOTRIENOL COMPOSITION FOR THE PREVENTION OF CANCER” (DAVOS LIFE SCIENCE PTE. LTD., priority 2008, published 2011).
